{"source": "paper PMC9957399", "about": "“New Insights into the Inhibition of Hesperetin on Polyphenol Oxidase: Inhibitory Kinetics, Binding Characteristics, Conformational Change and Computational Simulation” (Foods, 2023)", "key": {"[1]": {"target": "PPO (monophenolase) (Agaricus bisporus, UniProt C7FF04)", "sequence (C7FF04 1-392)": "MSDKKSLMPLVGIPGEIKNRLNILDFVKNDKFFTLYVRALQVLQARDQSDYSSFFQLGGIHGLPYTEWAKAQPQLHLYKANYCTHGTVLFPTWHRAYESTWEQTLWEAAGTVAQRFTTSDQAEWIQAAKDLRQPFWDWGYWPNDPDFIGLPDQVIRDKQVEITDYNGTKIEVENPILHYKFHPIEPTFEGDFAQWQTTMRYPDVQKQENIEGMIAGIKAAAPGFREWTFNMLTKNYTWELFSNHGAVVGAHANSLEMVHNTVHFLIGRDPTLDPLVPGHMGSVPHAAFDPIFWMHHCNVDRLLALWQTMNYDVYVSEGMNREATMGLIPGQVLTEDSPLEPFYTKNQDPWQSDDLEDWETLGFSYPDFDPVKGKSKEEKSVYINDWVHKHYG", "sequence (G1K3P4 1-150 partner)": "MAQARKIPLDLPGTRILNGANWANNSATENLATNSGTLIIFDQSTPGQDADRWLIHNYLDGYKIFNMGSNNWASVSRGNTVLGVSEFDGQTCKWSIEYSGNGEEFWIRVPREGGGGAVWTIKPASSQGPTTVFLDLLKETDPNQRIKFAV", "assay": "PPO activity assay, monophenolase (L-tyrosine oxidation)", "format": "biochemical, mushroom", "quoted_text": "To determine the monophenolase inhibitory activity of hesperetin, PPO (0.2 μΜ) was mixed with various concentrations of hesperetin (0, 25, 50, 100, 150, 200, 250 and 500 μM), and the mixtures were incubated at 30 °C. After 1 h, L-tyrosine (0.5 mΜ, substrate) was added to the mixtures, and the detection began."}, "[2]": {"target": "PPO (Agaricus bisporus, UniProt C7FF04)", "sequence (C7FF04 1-392)": "as the sequence (C7FF04 1-392) above", "sequence (G1K3P4 entry or part of it, further chain)": "as the sequence (G1K3P4 1-150 partner) above", "assay": "Kinetic analysis of inhibitory type (v vs [PPO], Lineweaver–Burk plots, L-dopa)", "format": "biochemical, mushroom", "details": "for inhibitory type: Lineweaver–Burk plots, hesperetin 0, 300, 600, 1200 μM", "description": "The inhibitory type of hesperetin against PPO could be evaluated using Lineweaver–Burk plots, and the mixed inhibition was described through Equation (1):(1) 1/v=Km/Vmax(1+[I]/Ki)1/[S]+1/Vmax(1+[I]/αKi) where v and Vmax represent enzyme reaction velocity and its maximum value, respectively. [I], [S] and Km are the concentrations of hesperetin and L-dopa, and the Michaelis–Menten constant, respectively. α denotes the apparent coefficient and Ki represents dissociation constant of hesperetin binding with free PPO, which can be calculated using the secondary Equations (2) and (3). (2) Slope=Km/Vmax+Km[I]/VmaxKi (3) Y-intercept=1/Vmaxapp=1/Vmax+1/αVmaxKi[I]\nAt different concentrations of hesperetin, the effect on the enzymatic reaction rate (ΔOD/min) by increasing the concentrations of PPO were shown in Figure 1E. […] As the concentration of hesperetin increased, the slopes of the lines declined.\nFour lines intersected in the second quadrant. Either the slopes or the Y-intercept of four lines augmented with the rising concentrations of hesperetin, which represented the values of Km increased in a concentration-dependent manner while that of Vmax decreased. […] The inhibition mechanism of hesperetin against PPO deserved further exploration. […] Thus, hesperetin may have a better chance to bind with free PPO instead of PPO–hesperetin complex."}, "[3]": {"system": "T1, PPO", "T1 construct": "purchased Worthington Biochemical Co. (Lakewood, CO, USA)", "assay": "Fluorometric titration (fluorescence quenching of PPO)", "format": "binding, mushroom", "experimental": "Fluorescence spectra were measured at 298, 304 and 310 K by a fluorophotometer (F–7000, Hitachi, Tokyo, Japan). Briefly, the concentration of PPO was 2.0 μM, and the same volume of hesperetin was added into the PPO solution (2.0 mL) 10 times (0→25.0 μM). After each addition of hesperetin, 3 min was timed to equilibrate the mixed system. Then, the emission spectra (290–500 nm) were scanned at fixed excitation wavelength (280 nm).\nTo deduct the effect of internal filtration, all measured fluorescence data were processed through Formula (5):(5) FC=FMe^(A1+A2)/2 where FC and FM represent the corrected and detected fluorescence, respectively. A1 and A2 stand for the absorbance values of hesperetin at excitation and emission wavelengths, respectively.\nThe Stern–Volmer curves for PPO fluorescence quenched by hesperetin at each temperature were obtained through Equation (6):(6) F0/F=1+Kqτ0[Q]=1+Ksv[Q] where F and F0 denote the fluorescence intensity of PPO with and without hesperetin, respectively. Ksv, Kq and [Q] represent the fluorescence quenching constant, quenching rate constant and the concentration of hesperetin, respectively. τ0 represents the average fluorophore lifetime without hesperetin, and its value is usually equal to 10^−8 s.\nBased on the following equation, the information about the interaction between hesperetin and PPO were obtained, including binding constant (Ka) and binding number (n):(7) logF0−F/F=nlogKa−nlog1/[Qt]−(F0−F)[Pt]/F0 where [Qt] and [Pt] stand for the concentrations of hesperetin and PPO. […] The n values at 298, 304 and 310 K were all equal to 1, implying that only one site existed when hesperetin interacted with PPO.\nThe values of ΔH°, ΔS° and ΔG°, which refer to enthalpy change, entropy change and free energy change, respectively, were obtained by the van ’t Hoff equations [42]:(8) logKa=−ΔH°/2.303RT+ΔS°/2.303R (9) ΔG°=ΔH°−TΔS° where T represents temperature; R represents gas constant, and its value is 8.314 J mol^−1 K^−1."}, "[4]": {"system": "PPO", "design": "method as in PMID 22093614", "details": "cited from earlier work"}, "[5]": {"target": "monophenolase", "design": "method as in PMID 28873682", "details": "previous study; read-out: IC50 on the inhibition of monophenolase activity; cited from earlier work"}}, "note": "Marks after values point to notes of the source that are not given here."}
{"compound": "COc1ccc([C@@H]2CC(=O)c3c(O)cc(O)cc3O2)cc1O", "note": "[hesperetin, Hesperetin]", "values": [{"measurement": "lag time of L-tyrosine oxidation", "setting": "[1]; hesperetin at 500.0 μM, extended from 1.08 min without inhibitor", "result": 10.33, "unit": "min"}, {"measurement": "remaining activity at 100 µM", "setting": "[1]; read-out: residual activity of PPO (monophenolase)", "result": 41.2, "unit": "%"}, {"measurement": "α (apparent coefficient)", "setting": "[2]; L-dopa substrate, mixed inhibition model", "result": 2.93}, {"measurement": "inhibitory type", "setting": "[2]", "result": "mixed-type inhibitor"}, {"measurement": "inhibitory type", "setting": "[2]; listed as Hesperetin", "result": "mixed inhibitor"}, {"measurement": "reversibility of inhibition", "setting": "[2]; plots of v versus [PPO], L-dopa 0.5 mM", "result": "reversibly inhibited"}, {"measurement": "Kq (quenching rate constant)", "setting": "[3]; 298, 304 and 310 K, τ0 = 10^−8 s, compared with maximum diffusion collision quenching constant", "result": "> 2e+10", "unit": "M⁻¹ s⁻¹"}, {"measurement": "Ka", "setting": "[3]; 298 K", "result": 19800, "unit": "L/mol"}, {"measurement": "Ka (binding constant)", "setting": "[3]; 298 K", "result": "1.98 ± 0.01 ^a ×10^4 L mol^−1"}, {"measurement": "Ksv", "setting": "[3]; 298 K", "result": "(1.71 ± 0.01) × 10^4 L mol^−1"}, {"measurement": "Ksv (quenching constant)", "setting": "[3]; 298 K", "result": "1.71 ± 0.01 ^a ×10^4 L mol^−1"}, {"measurement": "n (number of binding sites)", "setting": "[3]; 298 K", "result": "1.23 ± 0.03"}, {"measurement": "Ka", "setting": "[3]; 304 K", "result": 20500, "unit": "L/mol"}, {"measurement": "Ka (binding constant)", "setting": "[3]; 304 K", "result": "2.05 ± 0.02 ^b ×10^4 L mol^−1"}, {"measurement": "Ksv", "setting": "[3]; 304 K", "result": "(1.76 ± 0.02) × 10^4 L mol^−1"}, {"measurement": "Ksv (quenching constant)", "setting": "[3]; 304 K", "result": "1.76 ± 0.02 ^b ×10^4 L mol^−1"}, {"measurement": "n (number of binding sites)", "setting": "[3]; 304 K", "result": "1.08 ± 0.01"}, {"measurement": "Ka", "setting": "[3]; 310 K", "result": 22200, "unit": "L/mol"}, {"measurement": "Ka (binding constant)", "setting": "[3]; 310 K", "result": "2.22 ± 0.05 ^c ×10^4 L mol^−1"}, {"measurement": "Ksv", "setting": "[3]; 310 K", "result": "(2.09 ± 0.02) × 10^4 L mol^−1"}, {"measurement": "Ksv (quenching constant)", "setting": "[3]; 310 K", "result": "2.09 ± 0.02 ^c ×10^4 L mol^−1"}, {"measurement": "n (number of binding sites)", "setting": "[3]; 310 K", "result": "0.99 ± 0.04"}, {"measurement": "n values", "setting": "[3]; at 298, 304 and 310 K", "result": 1}, {"measurement": "inhibitory type (previous study)", "setting": "[4]", "result": "competitive PPO inhibitor"}]}
{"compound": "O=c1c(O)c(-c2ccc(O)c(O)c2)oc2cc(O)cc(O)c12", "note": "[quercetin]", "values": [{"measurement": "IC50", "setting": "[5]", "result": "19.4 ± 0.35", "unit": "µM"}]}
